From the supplement of paper PMC10307832

Legend:
Test in all cases: relative viability (nuclei count vs DMSO), 5 days (fraction); higher = more cells survive
[1] = compound: C1CN(CCN1)C2=CC=C(C=C2)C3=CN4C(=C(C=N4)C5=CC=NC6=CC=CC=C56)N=C3 [DM3189] + COc1cccc2cc(-c3nc([C@H]4CC[C@H](C(=O)O)CC4)n4ncnc(N)c34)[nH]c12 [OSI-027] (partner 0.5 µM)
In short: (§1)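 Dosing by pin tool came one day after lung cancer cell lines were seeded in 1536-well plates, using either one drug or a fixed anchor-drug dose plus five library-drug doses (not always all listed) in √10 steps. After 5 days, nuclei were counted on 4× images. Relative viability is treated-well nuclei count divided by vehicle-well nuclei count, and values are medians of duplicate plates.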

[2] = compound: C1CN(CCN1)C2=CC=C(C=C2)C3=CN4C(=C(C=N4)C5=CC=NC6=CC=CC=C56)N=C3 [DM3189] + Cc1cc(Nc2cc(N3CCN(C)CC3)nc(Sc3ccc(NC(=O)C4CC4)cc3)n2)n[nH]1 [Tozasertib] (partner 0.1 µM)
In short: as §1

[3] = compound: C1CN(CCN1)C2=CC=C(C=C2)C3=CN4C(=C(C=N4)C5=CC=NC6=CC=CC=C56)N=C3 [DM3189] + CC1(C)CCC(c2ccc(Cl)cc2)=C(CN2CCN(c3ccc(C(=O)NS(=O)(=O)c4ccc(N[C@H](CCN5CCOCC5)CSc5ccccc5)c(S(=O)(=O)C(F)(F)F)c4)cc3)CC2)C1 [Navitoclax] (partner 0.5 µM)
In short: as §1

[4] = compound: C1CN(CCN1)C2=CC=C(C=C2)C3=CN4C(=C(C=N4)C5=CC=NC6=CC=CC=C56)N=C3 [DM3189] + CC(=O)Nc1cccc(-n2c(=O)n(C3CC3)c(=O)c3c(Nc4ccc(I)cc4F)n(C)c(=O)c(C)c32)c1 [Trametinib] (partner 0.02 µM)
In short: as §1

[5] = compound: C1CN(CCN1)C2=CC=C(C=C2)C3=CN4C(=C(C=N4)C5=CC=NC6=CC=CC=C56)N=C3 [DM3189] + O=C(c1cc(Cc2n[nH]c(=O)c3ccccc23)ccc1F)N1CCN(C(=O)C2CC2)CC1 [Olaparib] (partner 8 µM)
In short: as §1

NCI-H2009
relative viability ([1]; first compound 0.08 µM): 0.684
relative viability ([1]; first compound 0.253 µM): 0.577
relative viability ([1]; first compound 0.8 µM): 0.553
relative viability ([1]; first compound 2.53 µM): 0.579
relative viability ([2]; first compound 0.08 µM): 0.678
relative viability ([2]; first compound 0.253 µM): 0.69
relative viability ([2]; first compound 0.8 µM): 0.67
relative viability ([2]; first compound 2.53 µM): 0.673
relative viability ([3]; first compound 0.08 µM): 1.17
relative viability ([3]; first compound 0.253 µM): 1.19
relative viability ([3]; first compound 0.8 µM): 1.06
relative viability ([3]; first compound 2.53 µM): 1.23
relative viability ([4]; first compound 0.08 µM): 0.276
relative viability ([4]; first compound 0.253 µM): 0.268
relative viability ([4]; first compound 0.8 µM): 0.263
relative viability ([4]; first compound 2.53 µM): 0.23
relative viability ([5]; first compound 0.08 µM): 0.894
relative viability ([5]; first compound 0.253 µM): 0.645
relative viability ([5]; first compound 0.8 µM): 0.638
relative viability ([5]; first compound 2.53 µM): 0.689

NCI-H2023
relative viability ([1]; first compound 0.08 µM): 0.428
relative viability ([1]; first compound 0.253 µM): 0.388
relative viability ([1]; first compound 0.8 µM): 0.295
relative viability ([1]; first compound 2.53 µM): 0.398
relative viability ([2]; first compound 0.08 µM): 0.442
relative viability ([2]; first compound 0.253 µM): 0.304
relative viability ([2]; first compound 0.8 µM): 0.259
relative viability ([2]; first compound 2.53 µM): 0.266
relative viability ([3]; first compound 0.08 µM): 0.992
relative viability ([3]; first compound 0.253 µM): 1.04
relative viability ([3]; first compound 0.8 µM): 0.909
relative viability ([3]; first compound 2.53 µM): 0.842
relative viability ([4]; first compound 0.08 µM): 0.469
relative viability ([4]; first compound 0.253 µM): 0.534
relative viability ([4]; first compound 0.8 µM): 0.532
relative viability ([4]; first compound 2.53 µM): 0.374
relative viability ([5]; first compound 0.08 µM): 0.486
relative viability ([5]; first compound 0.253 µM): 0.432
relative viability ([5]; first compound 0.8 µM): 0.515
relative viability ([5]; first compound 2.53 µM): 0.333

NCI-H2085
relative viability ([1]; first compound 0.08 µM): 0.835
relative viability ([1]; first compound 0.253 µM): 0.721
relative viability ([1]; first compound 0.8 µM): 0.722
relative viability ([1]; first compound 2.53 µM): 0.864
relative viability ([2]; first compound 0.08 µM): 0.903
relative viability ([2]; first compound 0.253 µM): 0.747
relative viability ([2]; first compound 0.8 µM): 0.898
relative viability ([2]; first compound 2.53 µM): 0.951
relative viability ([3]; first compound 0.08 µM): 1.2
relative viability ([3]; first compound 0.253 µM): 1.16
relative viability ([3]; first compound 0.8 µM): 1.19
relative viability ([3]; first compound 2.53 µM): 1.11
relative viability ([4]; first compound 0.08 µM): 0.521
relative viability ([4]; first compound 0.253 µM): 0.613
relative viability ([4]; first compound 0.8 µM): 0.598
relative viability ([4]; first compound 2.53 µM): 0.668
relative viability ([5]; first compound 0.08 µM): 0.735
relative viability ([5]; first compound 0.253 µM): 0.804
relative viability ([5]; first compound 0.8 µM): 0.804
relative viability ([5]; first compound 2.53 µM): 0.883

NCI-H2087
relative viability ([1]; first compound 0.08 µM): 0.718
relative viability ([1]; first compound 0.253 µM): 0.462
relative viability ([1]; first compound 0.8 µM): 0.449
relative viability ([1]; first compound 2.53 µM): 0.601
relative viability ([2]; first compound 0.08 µM): 0.248
relative viability ([2]; first compound 0.253 µM): 0.277
relative viability ([2]; first compound 0.8 µM): 0.264
relative viability ([2]; first compound 2.53 µM): 0.162
relative viability ([3]; first compound 0.08 µM): 1.09
relative viability ([3]; first compound 0.253 µM): 0.933
relative viability ([3]; first compound 0.8 µM): 1.04
relative viability ([3]; first compound 2.53 µM): 1.08
relative viability ([4]; first compound 0.08 µM): 0.24
relative viability ([4]; first compound 0.253 µM): 0.17
relative viability ([4]; first compound 0.8 µM): 0.228
relative viability ([4]; first compound 2.53 µM): 0.219
relative viability ([5]; first compound 0.08 µM): 0.511
relative viability ([5]; first compound 0.253 µM): 0.563
relative viability ([5]; first compound 0.8 µM): 0.505
relative viability ([5]; first compound 2.53 µM): 0.316

NCI-H2126
relative viability ([1]; first compound 0.08 µM): 0.79
relative viability ([1]; first compound 0.253 µM): 0.704
relative viability ([1]; first compound 0.8 µM): 0.67
relative viability ([1]; first compound 2.53 µM): 0.645
relative viability ([2]; first compound 0.08 µM): 0.823
relative viability ([2]; first compound 0.253 µM): 0.767
relative viability ([2]; first compound 0.8 µM): 0.739
relative viability ([2]; first compound 2.53 µM): 0.803
relative viability ([3]; first compound 0.08 µM): 0.827
relative viability ([3]; first compound 0.253 µM): 0.873
relative viability ([3]; first compound 0.8 µM): 0.756
relative viability ([3]; first compound 2.53 µM): 0.861
relative viability ([4]; first compound 0.08 µM): 0.609
relative viability ([4]; first compound 0.253 µM): 0.534
relative viability ([4]; first compound 0.8 µM): 0.509
relative viability ([4]; first compound 2.53 µM): 0.524
relative viability ([5]; first compound 0.08 µM): 0.99
relative viability ([5]; first compound 0.253 µM): 0.89
relative viability ([5]; first compound 0.8 µM): 0.896
relative viability ([5]; first compound 2.53 µM): 0.991

NCI-H2170
relative viability ([1]; first compound 0.08 µM): 0.863
relative viability ([1]; first compound 0.253 µM): 0.76
relative viability ([1]; first compound 0.8 µM): 0.768
relative viability ([1]; first compound 2.53 µM): 0.686
relative viability ([2]; first compound 0.08 µM): 0.84
relative viability ([2]; first compound 0.253 µM): 0.651
relative viability ([2]; first compound 0.8 µM): 0.525
relative viability ([2]; first compound 2.53 µM): 0.71
relative viability ([3]; first compound 0.08 µM): 0.637
relative viability ([3]; first compound 0.253 µM): 0.541
relative viability ([3]; first compound 0.8 µM): 0.541
relative viability ([3]; first compound 2.53 µM): 0.711
relative viability ([4]; first compound 0.08 µM): 1.09
relative viability ([4]; first compound 0.253 µM): 0.96
relative viability ([4]; first compound 0.8 µM): 0.835
relative viability ([4]; first compound 2.53 µM): 0.825
relative viability ([5]; first compound 0.08 µM): 0.607
relative viability ([5]; first compound 0.253 µM): 0.69
relative viability ([5]; first compound 0.8 µM): 0.534
relative viability ([5]; first compound 2.53 µM): 0.469

NCI-H2228
relative viability ([1]; first compound 0.08 µM): 0.73
relative viability ([1]; first compound 0.253 µM): 0.517
relative viability ([1]; first compound 0.8 µM): 0.434
relative viability ([1]; first compound 2.53 µM): 0.322
relative viability ([2]; first compound 0.08 µM): 0.236
relative viability ([2]; first compound 0.253 µM): 0.207
relative viability ([2]; first compound 0.8 µM): 0.227
relative viability ([2]; first compound 2.53 µM): 0.156
relative viability ([3]; first compound 0.08 µM): 0.96
relative viability ([3]; first compound 0.253 µM): 0.952
relative viability ([3]; first compound 0.8 µM): 1.1
relative viability ([3]; first compound 2.53 µM): 1.3
relative viability ([4]; first compound 0.08 µM): 0.476
relative viability ([4]; first compound 0.253 µM): 0.494
relative viability ([4]; first compound 0.8 µM): 0.581
relative viability ([4]; first compound 2.53 µM): 0.236
relative viability ([5]; first compound 0.08 µM): 0.88
relative viability ([5]; first compound 0.253 µM): 0.669
relative viability ([5]; first compound 0.8 µM): 0.492
relative viability ([5]; first compound 2.53 µM): 0.51
